One assay has as its system food intake. In words: Effect of Y4 selective agonists on acute food intake in mice. The format is in vivo, mice (ddy strain). The method, then: . In FIG. 2 is shown the accumulated food intake of the mice during 8 hours. […] The 50% suppressive effect on food intake was observed also when this was measured during the first full hour.
Effect of Y4 Selective Agonists on Acute Food Intake in Mice
The ddy strain of mice were used, 34-37 g and 8-9 weeks of age (Japan SLC, Shizuuoka, Japan). The mice were individually house in a regulated environment (22 C, 55% humidity) in a 12-hour light-dark cycle with light on at 7 AM. Food and water were available ad libitum except just before experiments (see below). The mice were acclimatized to subcutaneous injections during the week before experiments started. Mice were used once each in the experiments. Just before administration the peptides were diluted in physiological saline and administered in 100 μL volume for subcutaneous administration. Results are expressed as mean±SE. Analysis of variance followed by Bonferroni's test were used to assess differences among groups.
Mice were deprived of food but with free access to water for 16 hours prior to the actual test and experiments were started at 10 AM on the following day. A standard diet was used (CLEA Japan, Inc., Tokyo, Japan) and food intake was measured by subtracting uneaten food from the initially premeausured food after administration and checking for food spillage.

The target in the next assay is T1, human Y1 receptor (Homo sapiens, UniProt P25929).
T1 construct: expressed in transfected cells; host or cells: COS-7
T1 sequence (P25929 1-384): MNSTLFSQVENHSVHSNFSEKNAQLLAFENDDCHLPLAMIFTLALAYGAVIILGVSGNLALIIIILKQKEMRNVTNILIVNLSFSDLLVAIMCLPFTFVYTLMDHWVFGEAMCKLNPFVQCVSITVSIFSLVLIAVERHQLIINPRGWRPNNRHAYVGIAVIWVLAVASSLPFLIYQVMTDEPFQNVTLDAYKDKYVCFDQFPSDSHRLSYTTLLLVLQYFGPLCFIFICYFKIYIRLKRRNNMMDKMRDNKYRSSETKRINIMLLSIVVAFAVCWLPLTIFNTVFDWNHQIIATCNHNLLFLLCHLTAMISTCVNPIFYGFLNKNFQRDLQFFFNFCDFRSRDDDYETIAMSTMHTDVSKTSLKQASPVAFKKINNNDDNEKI
Put plainly: Human Y1 receptor potency assay (inositol phosphate turnover, COS-7 cells). The settings on record: relative to PP. The format is cell-based. How it is done: Potency of the test compounds on the human Y2 receptor is determined by performing dose-response experiments in COS-7 cells transiently transfected with the human Y2 receptor as well as a promiscuous G protein, Gqi5 which ensures that the Y2 receptor couples through a Gq pathway leading to an increase in inositol phosphate turnover.
Cells are washed twice in buffer, 20 mM HEPES, pH 7.4, supplemented with 140 mM NaCl, 5 mM KCl, 1 mM MgSO4, 1 mM CaCl2, 10 mM glucose, 0.05% (w/v) bovine serum; and are incubated in 0.5 ml buffer supplemented with 10 mM LiCl at 37 C for 30 min. After stimulation with various concentrations of peptide for 45 min at 37 C, cells are extracted with 10% ice-cold perchloric acid followed by incubation on ice for 30 min. The resulting supernatants are neutralized with KOH in HEPES buffer, and the generated [3H]-inositol phosphate are purified on Bio-Rad AG 1-X8 anion-exchange resin and counted in a beta counter. Determinations are made in duplicates. EC50 values were calculated using a standard pharmacological data handling software, Prism 3.0 (graphPad Sofware, San Diego, USA).
Protocol as for the Y2 potency assay, except that human Y1-transformed COS-7 cells are used.

For a further assay, the target named is T2, human Y4 receptor (Homo sapiens, UniProt P50391).
T2 construct: expressed in transfected cells; host or cells: COS-7
Put plainly: Human Y4 receptor potency assay (inositol phosphate turnover, COS-7 cells). The format is cell-based. The settings on record: relative to PP. How it is done: After stimulation with various concentrations of peptide for 45 min at 37 C, cells are extracted with 10% ice-cold perchloric acid followed by incubation on ice for 30 min. The resulting supernatants are neutralized with KOH in HEPES buffer, and the generated [3H]-inositol phosphate are purified on Bio-Rad AG 1-X8 anion-exchange resin and counted in a beta counter. Determinations are made in duplicates. EC50 values were calculated using a standard pharmacological data handling software, Prism 3.0 (graphPad Sofware, San Diego, USA).

Here are results for two compounds from patent US20080269114A1, “Y4 Selective Receptor Agonists For Thereapeutic Interventions” (priority 2004, published 2008).

T2 sequence (P50391 whole entry): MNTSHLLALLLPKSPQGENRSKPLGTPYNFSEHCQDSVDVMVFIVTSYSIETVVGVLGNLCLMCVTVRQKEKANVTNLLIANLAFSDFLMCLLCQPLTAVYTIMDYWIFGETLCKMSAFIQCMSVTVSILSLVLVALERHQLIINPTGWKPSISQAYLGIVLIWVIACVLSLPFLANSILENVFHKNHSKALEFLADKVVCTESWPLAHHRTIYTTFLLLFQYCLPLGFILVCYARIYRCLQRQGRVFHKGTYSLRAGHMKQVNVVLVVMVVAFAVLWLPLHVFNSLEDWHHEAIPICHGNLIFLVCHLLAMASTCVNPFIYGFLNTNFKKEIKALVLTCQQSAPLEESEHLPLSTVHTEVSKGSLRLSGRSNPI

For `CC[C@H](C)[C@H](NC(=O)[C@H](Cc1ccc(O)cc1)NC(=O)[C@H](CCCNC(=N)N)NC(=O)[C@H](CCCNC(=N)N)NC(=O)[C@H](CC(C)C)NC(=O)[C@H](CC(=O)O)NC(=O)[C@H](C)NC(=O)[C@H](C)NC(=O)[C@H](Cc1ccc(O)cc1)NC(=O)[C@H](CCC(N)=O)NC(=O)[C@H](C)NC(=O)[C@H](CCSC)NC(=O)[C@H](CCC(N)=O)NC(=O)[C@H](CCC(=O)O)NC(=O)[C@@H]1CCCN1C(=O)[C@@H](NC(=O)[C@H](C)NC(=O)[C@H](CC(N)=O)NC(=O)[C@H](CC(=O)O)NC(=O)CNC(=O)[C@@H]1CCCN1C(=O)[C@H](Cc1ccc(O)cc1)NC(=O)[C@@H](NC(=O)[C@@H]1CCCN1C(=O)[C@H](CCC(=O)O)NC(=O)[C@H](CC(C)C)NC(=O)[C@@H]1CCCN1)C(C)C)[C@@H](C)O)C(=O)N[C@@H](CC(N)=O)C(=O)N[C@@H](CCSC)C(=O)N[C@@H](CC(C)C)C(=O)N[C@H](C(=O)N[C@@H](CCCNC(=N)N)C(=O)N1CCC[C@H]1C(=O)N[C@@H](CCCNC(=N)N)C(=O)N[C@@H](Cc1ccc(O)cc1)C(N)=O)[C@@H](C)O` [PP2-36], the “period for which the suppressive effect on food intake was sustained” value with food intake (after the single subcutaneous injection) amounted to 8 h. Also, in the assay on food intake (first full hour, single subcutaneous injection, 16 hours fasted mice), the “suppressive effect on food intake” value is given as 50%. The “potency on the Y1 receptor lower than that of PP” value on human Y1 receptor is 3-4 fold.

As to `CC[C@H](C)[C@H](NC(=O)[C@H]1CSSC[C@H](NC(=O)[C@H](C)N)C(=O)N[C@@H](CC(C)C)C(=O)N[C@@H](CCC(=O)O)C(=O)N2CCC[C@H]2C(=O)N[C@@H](C(C)C)C(=O)N[C@@H](Cc2ccc(O)cc2)C(=O)N2CCC[C@H]2C(=O)NCC(=O)N[C@@H](CC(=O)O)C(=O)N[C@@H](CC(N)=O)C(=O)N[C@@H](C)C(=O)N[C@@H]([C@@H](C)O)C(=O)N2CCC[C@H]2C(=O)N[C@@H](CCC(=O)O)C(=O)N[C@@H](CCC(N)=O)C(=O)N[C@@H](CCSC)C(=O)N[C@@H](C)C(=O)N[C@@H](CCC(N)=O)C(=O)N[C@@H](Cc2ccc(O)cc2)C(=O)N[C@@H](C)C(=O)N[C@@H](C)C(=O)N[C@@H](CC(=O)O)C(=O)N[C@@H](CC(C)C)C(=O)N[C@@H](CCCNC(=N)N)C(=O)N[C@@H](CCCNC(=N)N)C(=O)N1)C(=O)N[C@@H](CC(N)=O)C(=O)N[C@@H](CCSC)C(=O)N[C@@H](CC(C)C)C(=O)N[C@H](C(=O)N[C@@H](CCCNC(=N)N)C(=O)N1CCC[C@H]1C(=O)N[C@@H](CCCNC(=N)N)C(=O)N[C@@H](Cc1ccc(O)cc1)C(N)=O)[C@@H](C)O` [[Cys2,D-Cys27]PP], the “potency on the Y4 receptor lower than that of PP” value at human Y4 receptor was 7 fold.
